# From patent US20030087014A1, “Enhanced thermal inactivation of pathogen in a nutriment by acidulant” (Mionix Corp., priority 2001, published 2003)
# System: human skin
# Test: Contact of acidic solution with human skin and nose
# Details: solution with a pH of less than 0.5
smiles,measurement,value
O=S(=O)(O)O [sulfuric acid],Irritation of hand put into the solution,an irritation would occur within a relatively short span of time
